In ChEMBL document CHEMBL3769336, “Discovery of a Chemical Tool Inhibitor Targeting the Bromodomains of TRIM24 and BRPF” (J Med Chem, 2016):

What was measured:
[1] = target: T1, Bromodomain and PHD finger-containing protein 3 (Homo sapiens, UniProt Q9ULD4); assay: Inhibition of BRPF3 (unknown origin) by Alpha Screen assay
T1 sequence (Q9ULD4 whole entry): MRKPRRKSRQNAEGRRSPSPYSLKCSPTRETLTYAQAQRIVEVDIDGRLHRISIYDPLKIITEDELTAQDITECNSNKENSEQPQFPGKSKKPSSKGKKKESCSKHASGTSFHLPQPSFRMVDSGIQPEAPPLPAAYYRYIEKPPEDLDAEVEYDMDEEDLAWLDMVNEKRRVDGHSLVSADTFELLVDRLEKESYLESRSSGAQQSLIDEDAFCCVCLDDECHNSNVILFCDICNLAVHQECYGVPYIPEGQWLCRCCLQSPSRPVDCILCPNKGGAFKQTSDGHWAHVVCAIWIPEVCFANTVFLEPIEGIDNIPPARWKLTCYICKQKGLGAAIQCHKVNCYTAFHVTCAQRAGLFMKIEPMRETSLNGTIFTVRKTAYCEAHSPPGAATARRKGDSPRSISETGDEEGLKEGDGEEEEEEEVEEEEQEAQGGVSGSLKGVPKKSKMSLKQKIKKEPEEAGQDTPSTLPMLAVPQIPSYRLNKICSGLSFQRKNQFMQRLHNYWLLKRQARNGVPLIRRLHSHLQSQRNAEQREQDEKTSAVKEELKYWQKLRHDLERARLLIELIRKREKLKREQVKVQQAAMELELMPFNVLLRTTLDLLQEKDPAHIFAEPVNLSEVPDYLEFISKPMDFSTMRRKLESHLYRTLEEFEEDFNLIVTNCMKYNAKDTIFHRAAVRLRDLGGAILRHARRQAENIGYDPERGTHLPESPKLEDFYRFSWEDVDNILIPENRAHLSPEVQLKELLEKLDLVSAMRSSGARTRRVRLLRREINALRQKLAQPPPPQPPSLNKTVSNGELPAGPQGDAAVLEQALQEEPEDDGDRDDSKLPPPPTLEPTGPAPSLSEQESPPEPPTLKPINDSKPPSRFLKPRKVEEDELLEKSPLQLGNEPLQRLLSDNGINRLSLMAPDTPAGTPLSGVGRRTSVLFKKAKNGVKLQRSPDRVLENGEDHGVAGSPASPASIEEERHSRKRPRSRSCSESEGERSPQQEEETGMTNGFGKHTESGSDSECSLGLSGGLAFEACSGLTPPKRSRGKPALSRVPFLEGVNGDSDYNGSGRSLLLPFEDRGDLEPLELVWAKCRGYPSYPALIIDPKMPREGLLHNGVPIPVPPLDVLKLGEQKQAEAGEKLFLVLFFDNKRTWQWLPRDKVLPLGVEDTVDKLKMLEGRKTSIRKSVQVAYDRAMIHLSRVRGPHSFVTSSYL

[2] = Cytotoxicity against human MM1S cells after 72 hrs by CellTiter-Glo assay; type: functional; details: MM1.S

**Q.** What does the source list for `COc1ccc(Oc2cc3c(cc2NS(=O)(=O)c2ccc(OC)c(OC)c2)n(C)c(=O)n3C)cc1`?
**A.** IC50 [1]: 7 µM; GI50 [2]: > 10 µM
